Assay results reported in patent publication US9394331B2, “2′-spiro-nucleosides and derivatives thereof useful for treating hepatitis C virus and dengue virus infections” (priority 2010, dated 2016).

Tested on: HCV replicon
Assay: HCV replicon assay (Clone A cells and ET-lunet cells, HCV RNA by real time PCR)
Type: cell-based, hepatitis C virus
Conditions: Hepatitis C virus, 96 h, Table 1; HCV replicon, 4 days; read-out: EC50, anti-HCV activity of selected nucleosides
Description: HCV replicon assay. HCV replicon assays using Clone A cells and ET-lunet cells were performed as described previously. L. J. Stuyver et al. Antimicrob. Agents Chemother. 2004, 48, 651-654. Briefly, Clone A cells and ET-lunet cells were seeded at a density of 1500 and 3000 cells per well in a 96-well plate, respectively. Test compounds serially diluted in culture medium without G418 were added to cells. Plates were incubated at 37° C. in a 5% CO2 atmosphere for 4 days. Inhibition of HCV RNA replication was determined by quantitative real time PCR. See, e.g., L. J. Stuyver et al. Antiviral Chem. Chemother. 2006, 17, 79-87.
To express the antiviral effectiveness of a compound, the threshold RT-PCR cycle of the test compound was subtracted from the average threshold RT-PCR cycle of the no-drug control (ΔCtHCV). A ΔCt of 3.3 equals a 1-log 10 reduction (equal to the 90% effective concentration [EC90]) in replicon RNA levels. The cytotoxicity of the test compound could also be expressed by calculating the ΔCtrRNA values. The ΔΔCt specificity parameter could then be introduced (ΔCtHCV-ΔCtrRNA), in which the levels of HCV RNA are normalized for the rRNA levels and calibrated against the no-drug control.

| Structure (SMILES) | EC50 [µM] |
| --- | --- |
| O=c1ccn([C@@H]2O[C@H](CO)[C@@H](O)[C@@]23CCCO3)c(=O)[nH]1 [compound 32, 1-((5 S,6R,8R,9R)-9-hydroxy-8-(hydroxymethyl)-1,7-dioxaspiro[4.4]nonan-6-yl)pyrimidine-2,4(1H,3H)-dione] | > 100 |
| O=c1ccn([C@@H]2O[C@H](CO)[C@@H](O)[C@@]23CCO3)c(=O)[nH]1 [compound 36, 1-((4S,5R,7R,8R)-8-hydroxy-7-(hydroxymethyl)-1,6-dioxaspiro[3.4]octan-5-yl)pyrimidine-2,4(1H,3H)-dione] | > 100 |
| O=c1ccn([C@@H]2O[C@H](CO)[C@@H](O)[C@]23CCCO3)c(=O)[nH]1 [compound 44, 1-((5R,6R,8R,9R)-9-hydroxy-8-(hydroxymethyl)-1,7-dioxaspiro[4.4]nonan-6-yl)pyrimidine-2,4(1H,3H)-dione] | > 100 |
| O=c1ccn([C@@H]2O[C@H](CO)[C@@H](O)[C@]23CCO3)c(=O)[nH]1 [compound 48, 1-((4R,5R,7R,8R)-8-hydroxy-7-(hydroxymethyl)-1,6-dioxaspiro[3.4]octan-5-yl)pyrimidine-2,4(1H,3H)-dione] | > 100 |
| Nc1ccn([C@@H]2O[C@H](CO)[C@@H](O)[C@]23CCCO3)c(=O)n1 [compound 49, 4-amino-1-((5R,6R,8R,9R)-9-hydroxy-8-(hydroxymethyl)-1,7-dioxaspiro[4.4]nonan-6-yl)pyrimidin-2(1H)-one] | > 100 |
| Nc1ccn([C@@H]2O[C@H](CO)[C@@H](O)[C@@]23CCCO3)c(=O)n1 [compound 50, 4-amino-1-((5S,6R,8R,9R)-9-hydroxy-8-(hydroxymethyl)-1,7-dioxaspiro[4.4]nonan-6-yl)pyrimidin-2(1H)-one] | > 100 |
| Nc1ccn([C@@H]2O[C@H](CO)[C@@H](O)[C@@]23CCO3)c(=O)n1 [compound 51, 4-amino-1-((4S,5R,7R,8R)-8-hydroxy-7-(hydroxymethyl)-1,6-dioxaspiro[3.4]octan-5-yl)pyrimidin-2(1H)-one] | > 100 |
| Nc1ccn([C@@H]2O[C@H](CO)[C@@H](O)[C@]23CCO3)c(=O)n1 [compound 52, 4-amino-1-((4R,5R,7R,8R)-8-hydroxy-7-(hydroxymethyl)-1,6-dioxaspiro[3.4]octan-5-yl)pyrimidin-2(1H)-one] | > 54.5 |
| COc1nc(N)nc2c1ncn2[C@@H]1O[C@H](CO)[C@@H](O)[C@@]12CCCO2 [compound 62, (5S,6R,8R,9R)-6-(2-amino-6-methoxy-9H-purin-9-yl)-8-(hydroxymethyl)-1,7-dioxaspiro[4.4]nonan-9-ol] | > 20 |
| COc1nc(N)nc2c1ncn2[C@@H]1O[C@H](CO)[C@@H](O)[C@@]12CCO2 [compound 66, (4S,5R,7R,8R)-5-(2-amino-6-methoxy-9H-purin-9-yl)-7-(hydroxymethyl)-1,6-dioxaspiro[3.4]octan-8-ol] | > 20 |
| COc1nc(N)nc2c1ncn2[C@@H]1O[C@H](CO)[C@@H](O)[C@]12CCCO2 [compound 72, (5R,6R,8R,9R)-6-(2-amino-6-methoxy-9H-purin-9-yl)-8-(hydroxymethyl)-1,7-dioxaspiro[4.4]nonan-9-ol] | > 20 |
| COc1nc(N)nc2c1ncn2[C@@H]1O[C@H](CO)[C@@H](O)[C@]12CCO2 [compound 76, (4R,5R,7R,8R)-5-(2-amino-6-methoxy-9H-purin-9-yl)-7-(hydroxymethyl)-1,6-dioxaspiro[3.4]octan-8-ol] | > 100 |
| Nc1nc2c(ncn2[C@@H]2O[C@H](CO)[C@@H](O)[C@]23CCO3)c(=O)[nH]1 [compound 77, 2-amino-9-((4R,5R,7R,8R)-8-hydroxy-7-(hydroxymethyl)-1,6-dioxaspiro[3.4]octan-5-yl)-1H-purin-6(9H)-one] | > 20 |
